As usually defined, the IC50 is the concentration needed to halve the response being measured.

Experimental findings from patent US20250129027A1 (APOGEE PHARMACEUTICALS, INC., priority 2023, published 2025) are described below.

Series [1] can be described thus: Plasma stability (LC-MS/MS, % parent compound remaining, half-life). In kind it is in vitro ADME. The settings on record: human plasma; for half-life at 1 μM: 37° C., 0-240 mins, read-out: Human Plasma Stability (t1/2, min). The procedure:
Exemplary compounds described herewith were assayed for plasma stability (various species).
Plasma was removed from deep freezer and allowed to thaw at room temperature (or at 37° C. if needed). Plasma was then centrifuged at 4,000 rpm at RT for 10 min and supernatant was collected and used for the assay: • Drug test tubes: 297 μL plasma/drug test tube, duplicate/drug. • Blank test tubes: 297 μL plasma/Blank test tube, duplicate, too. (Optional, if assay system is stable and consistent) • T0 plasma tube: […] X No. of total sample tubes+50 μL extra for T0 extraction. • (Note: equivalent proportion of solvent mixture as added in drug test tubes will be added before T0 extraction!)
Take out the pre-warmed plasma tubes from the 37° C. incubator. Add 3 μL of 100 μM stock solution (or, equivalent proportion of the solvent mixture to T0 plasma tube for T0 extraction) to each corresponding sample tubes in order, vortex gently (3×) to mix. Finish the sample tubes orderly and quickly, then transfer them to the Thermomixer (program & 37° C. ready), and start the Thermomixer. Record starting time on paper & start the timer for 15 min for the 1st sampling time point.
Now add the equivalent amount of solvent mixture to the T0 plasma tube, mix, and transfer 50 μL plasma to each of the T0 extracting tubes, vortex 20s and placed on ice. Vortex 10s again before centrifuging the samples at 14,000 rpm for 5 min at 4° C.
Repeat the above procedures at each time point (15, 30, 60, 120, 240 min) by transferring 50 μL plasma samples from the testing tubes to the corresponding extracting tubes, in the same order and time scheme as in the addition of the drug to the plasma samples at the beginning of the study.
• Kel=Slope of LN % PCR vs time
Half life (t½)=0.693/Kel (1)

A further series has as its target human recombinant MAGL (Homo sapiens (Human), UniProt Q99685). In words: In vitro inhibition of MAGL activity (inhibitor screening kit, 4-nitrophenylacetate). Format: biochemical. The settings on record: human recombinant MAGL. In short, it runs like this:
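Colorimetric kit assay: recombinant human MAGL hydrolyses 4-nitrophenylacetate to 4-nitrophenol, read by absorbance at 405-412 nm. Inhibition given as percentage of signal in treated versus untreated MAGL control.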

Another series deals with human recombinant FAAH (Homo sapiens (Human), UniProt O00519). In words: In vitro inhibition of FAAH activity (fluorescent inhibitor screening kit, AMC arachidonoyl amide). Format: biochemical. In short, it runs like this:
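Fluorogenic kit assay: AMC arachidonoyl amide is cleaved by human recombinant FAAH, read at 340-360/450-465 nm. Percent inhibition versus non-treated control; IC50 values derived from multiple compound concentrations where tested.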

Where [2] appears, read: FAAH, values as listed in Table 5, read-out: IC50.
Where [3] appears, read: human recombinant FAAH, read-out: Inhibition on FAAH activity (IC50).

Read-outs that look alike come from different tables or passages of the source. A value given as a limit tells only on which side of the number the result lay.

Sequence of human recombinant FAAH (O00519 whole entry): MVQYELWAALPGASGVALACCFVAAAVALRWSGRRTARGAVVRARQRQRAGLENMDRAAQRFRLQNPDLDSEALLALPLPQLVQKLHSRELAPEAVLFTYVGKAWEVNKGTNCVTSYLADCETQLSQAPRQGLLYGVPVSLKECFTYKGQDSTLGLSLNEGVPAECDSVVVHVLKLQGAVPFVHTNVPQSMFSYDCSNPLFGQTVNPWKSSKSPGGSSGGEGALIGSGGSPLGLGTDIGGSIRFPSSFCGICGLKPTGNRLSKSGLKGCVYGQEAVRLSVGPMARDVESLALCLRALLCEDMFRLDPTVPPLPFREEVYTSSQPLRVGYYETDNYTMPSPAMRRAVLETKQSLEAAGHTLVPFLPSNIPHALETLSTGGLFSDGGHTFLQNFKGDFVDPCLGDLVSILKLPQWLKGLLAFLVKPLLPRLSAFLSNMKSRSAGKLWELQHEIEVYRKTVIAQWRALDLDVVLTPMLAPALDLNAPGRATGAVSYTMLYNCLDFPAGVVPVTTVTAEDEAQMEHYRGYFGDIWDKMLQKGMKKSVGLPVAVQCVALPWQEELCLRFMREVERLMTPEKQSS
Sequence of human recombinant MAGL (Q99685 whole entry): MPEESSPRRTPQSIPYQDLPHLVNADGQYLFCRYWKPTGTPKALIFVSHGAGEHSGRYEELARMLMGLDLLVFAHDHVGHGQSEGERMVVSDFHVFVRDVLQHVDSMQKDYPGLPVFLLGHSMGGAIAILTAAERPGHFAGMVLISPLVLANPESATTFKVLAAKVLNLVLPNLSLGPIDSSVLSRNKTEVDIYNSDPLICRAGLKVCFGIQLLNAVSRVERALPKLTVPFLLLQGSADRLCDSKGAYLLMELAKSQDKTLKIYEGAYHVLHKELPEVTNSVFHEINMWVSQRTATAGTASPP

`O=C(NC1CCCCCC1)Oc1cccc(-c2cncc(-c3cccs3)c2)c1` [Example 64, 3-(5-(thiophen-2-yl)pyridin-3-yl)phenyl cycloheptylcarbamate]: in series [1], the half-life at 1 μM turned out to be 24 min. Moreover, the IC50 on human recombinant MAGL is over 10000 nM; on human recombinant FAAH (setting [2]) it was 39.1 nM; on human recombinant FAAH (setting [3]) it was 39.1 nM.
On to `O=C(NC1CCCCCC1)Oc1ccc(F)c(-c2cncc(-c3nnco3)c2)c1` [Example 194, 3-(5-(1,3,4-oxadiazol-2-yl)pyridin-3-yl)-4-fluorophenyl cycloheptylcarbamate], for which the half-life at 1 μM in series [1] came to 41 min. The “plasma stability and/or aqueous solubility compared to reference compound URB597” value in series [1] (see Table 5) is “improved plasma stability, improved aqueous solubility, or improved plasma stability and aqueous solubility”. In addition, the IC50 is over 10000 nM at human recombinant MAGL, 49.1 nM at human recombinant FAAH (setting [2]) and 49.1 nM at human recombinant FAAH (setting [3]).
`O=C(NC1CCCC1)Oc1cccc(-c2cncc(-c3ncn[nH]3)c2)c1` [Example 223, 3-(5-(1H-1,2,4-triazol-5-yl)pyridin-3-yl)phenyl cyclopentylcarbamate]: the IC50 at human recombinant MAGL was over 10000 nM; at human recombinant FAAH (setting [3]) it was 100 to 1000 nM.
The matching figures for `O=C(NCc1ccccc1)Oc1cc(F)cc(-c2cncc(-c3nnco3)c2)c1` [Example 196, 3-(5-(1,3,4-oxadiazol-2-yl)pyridin-3-yl)-5-fluorophenyl benzylcarbamate]: about 10000 nM and over 1000 nM.
For `CCCCCCCCNC(=O)Oc1ccc(OC)c(-c2cncc(-c3ccno3)c2)c1` [Example 109, 3-(5-(isoxazol-5-yl)pyridin-3-yl)-4-methoxyphenyl octylcarbamate], in that order: about 10000 nM and 1 to 10 nM.
The matching figures for `COc1ccc(OC(=O)NCC2CCCCC2)cc1-c1cncc(-c2nccs2)c1` [Example 122, 4-methoxy-3-(5-(thiazol-2-yl)pyridin-3-yl)phenyl (cyclohexylmethyl)carbamate]: about 10000 nM and 100 to 1000 nM.
As for `COc1ccc(OC(=O)NCc2ccccc2)cc1-c1cncc(-c2nnn[nH]2)c1` [Example 252, 3-(5-(1H-tetrazol-5-yl)pyridin-3-yl)-4-methoxyphenyl benzylcarbamate], the IC50 at human recombinant MAGL was over 10000 nM; at human recombinant FAAH (setting [3]), over 1000 nM.
The matching figures for `COc1ccc(OC(=O)NC2CCCC2)cc1-c1cncc(-c2ncco2)c1` [Example 80, 4-methoxy-3-(5-(oxazol-2-yl)pyridin-3-yl)phenyl cyclopentylcarbamate]: over 10000 nM and 10 to 100 nM.
The matching figures for `CCCCCCCCNC(=O)Oc1cccc(-c2cncc(-c3ncco3)c2)c1` [Example 73, 3-(5-(oxazol-2-yl)pyridin-3-yl)phenyl octylcarbamate]: over 10000 nM and 1 to 10 nM.
For the molecule `O=C(NCc1ccccc1)Oc1cccc(-c2cncc(-c3cccs3)c2)c1` [Example 61, 3-(5-(thiophen-2-yl)pyridin-3-yl)phenyl benzylcarbamate], the figures for the concentration for half-maximal inhibition (IC50) at human recombinant MAGL and on human recombinant FAAH (setting [3]) were over 10000 nM and about 100 nM, respectively.
For `COc1ccc(OC(=O)NCC2CCCCC2)cc1-c1cncc(-c2ncn[nH]2)c1` [Example 233, 3-(5-(1H-1,2,4-triazol-5-yl)pyridin-3-yl)-4-methoxyphenyl (cyclohexylmethyl) carbamate], in that order: about 10000 nM and 100 to 1000 nM.
The matching figures for `CCCCCNC(=O)Oc1cccc(-c2cncc(C=O)c2)c1` [Example 14, 3-(5-formylpyridin-3-yl)phenyl pentylcarbamate]: 10000 to 50000 nM and 10 to 100 nM.
With `O=C(Oc1cccc(-c2cncc(-c3nnco3)c2)c1)N1CC2(COC2)C1` [Example 152, 3-(5-(1,3,4-oxadiazol-2-yl)pyridin-3-yl)phenyl 2-oxa-6-azaspiro[3.3]heptane-6-carboxylate], the half-inhibitory concentration (IC50) is over 10000 nM on human recombinant MAGL and over 1000 nM on human recombinant FAAH (setting [3]).
For `O=C(NC1CCCC1)Oc1cccc(-c2cncc(-c3cccs3)c2)c1` [Example 62, 3-(5-(thiophen-2-yl)pyridin-3-yl)phenyl cyclopentylcarbamate], in that order: about 10000 nM and 10 to 100 nM.
Turning to `COc1ccc(OC(=O)NC2CCCCCC2)cc1-c1cncc(-c2ccc[nH]2)c1` [Example 46, 3-(5-(1H-pyrrol-2-yl)pyridin-3-yl)-4-methoxyphenyl cycloheptylcarbamate], the IC50 on human recombinant MAGL was over 10000 nM; at human recombinant FAAH (setting [3]), 100 to 1000 nM.
The matching figures for `CCCCCCCCNC(=O)Oc1cccc(-c2cncc(-c3nncs3)c2)c1` [Example 207, 3-(5-(1,3,4-thiadiazol-2-yl)pyridin-3-yl)phenyl octylcarbamate]: about 10000 nM and 1 to 10 nM.
For `O=C(NCC1CCCCC1)Oc1cc(O)cc(-c2cncc(-c3nnco3)c2)c1` [Example 161, 3-(5-(1,3,4-oxadiazol-2-yl)pyridin-3-yl)-5-hydroxyphenyl (cyclohexylmethyl)carbamate], in that order: 10000 to 50000 nM and 10 to 100 nM.
With `O=C(NC1CCCC1)Oc1cc(O)cc(-c2cncc(-c3nnco3)c2)c1` [Example 163, 3-(5-(1,3,4-oxadiazol-2-yl)pyridin-3-yl)-5-hydroxyphenyl cyclopentylcarbamate], the IC50 is over 50000 nM on human recombinant MAGL and 10 to 100 nM on human recombinant FAAH (setting [3]).
For `COC(=O)c1cncc(-c2cccc(OC(=O)NC3CCCCC3)c2)c1` [Example 12, methyl 5-(3-((cyclohexylcarbamoyl)oxy)phenyl)nicotinate], in that order: over 10000 nM and 10 to 100 nM.
For `O=C(NC1CCCCC1)Oc1cccc(-c2cncc(-c3cccs3)c2)c1` [Example 63, 3-(5-(thiophen-2-yl)pyridin-3-yl)phenyl cyclohexylcarbamate], in that order: over 10000 nM and 10 to 100 nM.
The matching figures for `O=C(NC1CCCCC1)Oc1cccc(-c2cncc(-c3ncno3)c2)c1` [Example 205, 3-(5-(1,2,4-oxadiazol-5-yl)pyridin-3-yl)phenyl cyclohexylcarbamate]: over 10000 nM and 10 to 100 nM.
Turning to `CN(C)c1ccc(OC(=O)NC2CCCCC2)cc1-c1cncc(-c2nnco2)c1` [Example 184, 3-(5-(1,3,4-oxadiazol-2-yl)pyridin-3-yl)-4-(dimethylamino)phenyl cyclohexylcarbamate], the results for the half-inhibitory concentration (IC50) at human recombinant MAGL and on human recombinant FAAH (setting [3]) were over 10000 nM and over 1000 nM, respectively.
For `O=C(NCc1ccccc1)Oc1cccc(-c2cc(-c3nnco3)ccn2)c1` [Example 258, 3-(4-(1,3,4-oxadiazol-2-yl)pyridin-2-yl)phenyl benzylcarbamate], in that order: over 10000 nM and 100 to 1000 nM.
For `CCOC(=O)c1cncc(-c2cccc(OC(=O)NC3CCCCC3)c2)c1` [Example 6, ethyl 5-(3-((cyclohexylcarbamoyl)oxy)phenyl)nicotinate], in that order: over 100 nM and over 100 nM.
For `O=C(NC1CCCC1)Oc1cccc(-c2cncc(-c3ccco3)c2)c1` [Example 50, 3-(5-(furan-2-yl)pyridin-3-yl)phenyl cyclopentylcarbamate], in that order: about 10000 nM and 10 to 100 nM.
Consider `O=C(NCC1CCCCC1)Oc1cccc(-c2cncc(-c3ncn[nH]3)c2)c1` [Example 220, 3-(5-(1H-1,2,4-triazol-5-yl)pyridin-3-yl)phenyl (cyclohexylmethyl)carbamate], for which the IC50 is about 10000 nM on human recombinant MAGL and 10 to 100 nM at human recombinant FAAH (setting [3]).
The matching figures for `O=C(NC1CCCCC1)Oc1cccc(-c2cncc(-c3ccc[nH]3)c2)c1` [Example 39, 3-(5-(1H-pyrrol-2-yl)pyridin-3-yl)phenyl cyclohexylcarbamate]: over 10000 nM and 100 to 1000 nM.
The matching figures for `CC1CCC(NC(=O)Oc2ccc(O)c(-c3cncc(-c4nnco4)c3)c2)CC1` (stereo not shown) [Example 159]: over 10000 nM and 10 to 100 nM.
